Laboratory results: article PMC5971065 (ACS infectious diseases, 2017)

Experiments:
Mtb H37Rv = assay type: cell-based, Mycobacterium tuberculosis
[1] = test system: A549, HEK-293, and J774A.1 cells; assay: Mammalian cytotoxicity; settings: positive control treatment

Substance | H37Rv MICKAN (Mtb H37Rv) [µg/mL] | cytotoxicity [1]
kanamycin A | 1.25 | –
Triton X-100 | – | most of the cells killed
